Assay results published in PubChem BioAssay AID1288 (Columbia University Molecular Screening Center, 2008).
Calls of active or inactive are those of the source. No rule for the calls is given here.

assay: inhibitors of TNFa-induced E-selectin expression, confirmation, imaging, retest plus dose response, cell count (AID 1288); conditions: human endothelial cells, TNFa-induced E-selectin, imaging; at 2 µM; hits give high values;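 also: 0% = stimulated vehicle wells and 100% = unstimulated vehicle wells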

| SMILES | inhibition |
| --- | --- |
| COc1ccc(NC(=O)CN(C)CC(=O)Nc2ccccc2SC)cc1 | -3.18% (inactive) |
| Cc1ccc(NC(=O)N2CCC(C(=O)NCCC3=CCCCC3)CC2)cc1 | 11.6% (inactive) |
| O=c1ccc2ccc(OCc3nnc(-c4ccccc4Br)o3)cc2o1 | 2.48% (inactive) |
| Cc1ccc(/C=N/n2c(=O)c(C(C)(C)C)nn3cnnc23)cc1 | 6.53% (inactive) |
| CN1CCN(S(=O)(=O)c2ccc(NC(=O)C3CCCO3)cc2)CC1 (centres undefined) | 13.2% (inactive) |
| COc1ccccc1CC1(C)NC(=O)N(CC(=O)N2CC(C)OC(C)C2)C1=O (centres undefined) | 9.89% (inactive) |
| O=C(NN=C1CCN(Cc2ccccc2)CC1)c1ccccc1 | 9.36% (inactive) |
| Cc1ccc(CNCC(O)(c2ccccc2)c2ccc(Cl)cc2)cc1 (centres undefined) | 5.94% (inactive) |
| CCN(CC)S(=O)(=O)c1ccc2[nH]c(=O)cc(C(=O)Nc3cccc(C(C)=O)c3)c2c1 | 8.83% (inactive) |
| COc1cc(NC(=O)CN2CCC(C)CC2)c(C)cc1[N+](=O)[O-] | 8.41% (inactive) |
| CCN(CC)c1ccc(C2C(C(=O)OCCOC)=C(C)NC3=C2C(=O)CC(C)(C)C3)cc1 (centres undefined) | -4.2% (inactive) |
| CC1=NN(C(C)C)C(=O)C1 | 25.1% (inactive) |
| CCOC(=O)N1CCN(C(=O)COc2cccc3c2CCN(Cc2cccc(C)c2)C3=O)CC1 | 8.76% (inactive) |
| CC(C)=C1SC(N2CCN(c3ccc(C)cc3)CC2)=NC1=O | -3.72% (inactive) |
| Cc1nc(SCC(N)=O)c([N+](=O)[O-])[nH]1 | 9.44% (inactive) |
| CCOc1ccc(NC(=O)/C=C/c2ccc(OC)cc2)c([N+](=O)[O-])c1 | 13.8% (inactive) |
| NC(=O)NOCc1ccccc1 | -1.04% (inactive) |
| COc1ccc(OC)c2sc(NC(=O)CCS(=O)(=O)c3ccccc3)nc12 | 5.59% (inactive) |
| CN(C)S(=O)(=O)c1cc(NC(=O)CSc2nn(-c3ccc(Cl)cc3)c(=S)s2)ccc1Cl | -2.75% (inactive) |
| COc1ccc(NC(=O)c2c(C)oc3c2CCCC3)cc1 | 3.37% (inactive) |
| O=C(O)CSc1nnc(-c2ccncc2)n1CCc1ccccc1 | 28.9% (inactive) |
| Clc1ccc(-c2nnc(-c3ccco3)o2)cc1 | 6.81% (inactive) |
| O=C(Nc1nc(-c2ccncc2)cs1)c1ccc(S(=O)(=O)N2CCOCC2)cc1 | 1.3% (inactive) |
| Cc1ccc(-n2c(SCC(=O)Nc3ccc4c(c3)OCCO4)nnc2-c2ccco2)cc1 | 5.17% (inactive) |
| O=C(c1ccccc1)N1CCN(c2ccccc2F)CC1 | 9.93% (inactive) |

| SMILES | inhibition |
| --- | --- |
| CC(C)CCNC(=O)C1CCN(c2nc3ccccc3o2)CC1 | 12.3% (inactive) |
| C/C(=N\Nc1cc(-c2ccccc2)nc(-c2ccccc2)n1)c1ccc(O)c(C)c1 | 5.91% (inactive) |
| O=c1c2c(n3nnnc3n1-c1ccccc1)-c1ccccc1CC21CCCC1 | -3.55% (inactive) |
| CCOC(=O)N(c1ccccc1)P1(=S)OCCO1 | 10.4% (inactive) |
| COc1cc(S(=O)(=O)NC2CCCCC2C)ccc1Cl (centres undefined) | 9.69% (inactive) |
| CN(C(=S)Nc1ccc(Oc2ccccc2)cc1)c1ccc(O)cc1 | 12.6% (inactive) |
| CS(=O)(=O)N1CCc2cc(-c3csc(NC(=O)Cc4cccs4)n3)ccc21 | 11.6% (inactive) |
| N/C(=N\c1nc(CSc2ccc(Cl)cc2)cc(=O)[nH]1)Nc1cccc2ccccc12 | 6.58% (inactive) |
| COC(=O)c1cc2c(s1)CS(=O)C2 (centres undefined) | 14.6% (inactive) |
| CC(=O)Nc1ccccc1Sc1ccc2c3c(cccc13)C(=O)N(c1ccc(C)cc1)C2=O | -0.84% (inactive) |
| CCCOc1ccc(NC(=O)C(=O)NCCCn2ccnc2)cc1 | 42.5% (inactive) |
| CCCCOc1ccc(/C=C/C(=O)OCC(=O)NC(=O)NCC(C)C)cc1OCC | 15.1% (inactive) |
| O=C(Oc1ccccc1N1C(=O)C2CC=CCC2C1=O)c1ccc(Br)cc1 (centres undefined) | 5.75% (inactive) |
| CCOC(=O)Cc1nnc(NC(=O)CSc2ccc(Cl)cc2)s1 | 2.82% (inactive) |
| CCc1n[nH]c2c1C(=O)CC(C)(C)C2 | 18% (inactive) |
| CC(C)(C)NC(=O)NC(=O)CSc1ncn[nH]1 | 6.43% (inactive) |
| Cc1ccc(NC(=O)Nc2ccc3c(c2)N(C)C(=O)CS3)nc1 | 3.21% (inactive) |
| COc1ccc(N2C(=O)CCC2(C#N)c2ccc(Br)cc2)cc1 (centres undefined) | -2.45% (inactive) |
| O=C(COc1ccc(-c2nnco2)cc1)NCc1ccccc1Cl | 10.1% (inactive) |
| O=C(c1cccs1)N(C(=O)c1cccs1)c1ccc(Br)cn1 | 15.4% (inactive) |
| CN(C)c1ccc(NC(=O)COC(=O)Cn2nnc3ccccc32)cc1 | 0.53% (inactive) |
| COc1ccc(N(CC(=O)Nc2ccc3c(c2)OCO3)S(C)(=O)=O)c(OC)c1 | -1.1% (inactive) |
| CCOC(=O)C1CCCN(c2ncnc3c2cnn3-c2ccc(Cl)cc2)C1 (centres undefined) | 38.5% (inactive) |
| CCn1cc(C(=O)O)c(=O)c2cc(F)c(N3CCN(C(=S)NC(=O)c4ccc(Br)cc4)CC3)cc21 | 7.45% (inactive) |
